The target in one assay is T1, S. aureus FabI (Staphylococcus aureus, UniProt Q6GI75).
T1 construct: made in house
T1 sequence (Q6GI75 1-256): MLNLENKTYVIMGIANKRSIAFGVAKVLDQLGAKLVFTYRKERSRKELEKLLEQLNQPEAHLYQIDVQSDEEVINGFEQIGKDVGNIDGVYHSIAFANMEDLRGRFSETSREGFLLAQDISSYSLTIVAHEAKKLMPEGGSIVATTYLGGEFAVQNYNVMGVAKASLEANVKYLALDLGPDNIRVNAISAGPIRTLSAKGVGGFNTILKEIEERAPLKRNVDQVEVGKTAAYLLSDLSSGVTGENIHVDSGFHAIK
The assay can be described thus: Fluorescence quenching assay (direct binding). To be noted: increasing amounts of compound; FabI fluorescence at 307 nm. On the procedure:
Fluorescence spectra were measured using a SHIMADZU fluorescence spectrophotometer (model RF-5310PC). […] Protein quenching was monitored at 25°C by using 5-nm excitation and 5-nm emission wavelength. The excitation wavelength was 280 nm, and the emission spectra were measured between 290 and 430 nm.

In assay [1] the test system is S. aureus RN4220. Nature of the assay: Inhibition of macromolecular biosynthesis (radiolabeled precursor incorporation) in S. aureus. It is filed as cell-based, Staphylococcus aureus. To be noted: drugs at 2 times the MIC. The procedure: (§1) To monitor the effects of compound 1 on lipid, DNA, RNA, protein, and cell wall biosynthesis, its effects on the incorporation of [1-^14C] acetate (50 mCi/mmol), [2-^14C] thymidine (59.8 mCi/mmol), [U-^14C] uridine (539 mCi/mmol), L-[U-^14C] leucine (306 mCi/mmol) or L-[U-^14C] isoleucine (329 mCi/mmol), and N-acetyl-D-[1-^14C] glucosamine (58.1 mCi/mmol) into S. aureus and S. pneumoniae were measured as described previously. S. aureus was exponentially grown to an A650 of 0.2 in Mueller–Hinton broth. S. pneumoniae was grown in tryptic soy broth supplemented with 5% sheep blood. […] An equal volume of DMSO solvent was added to the untreated control. After incubation with the radiolabeled precursors at 37°C for 1 h, followed by centrifugation, the cell pellets were washed twice with PBS buffer. After acetate incorporation, the total cellular lipids were extracted with chloroform-methanol-water. The incorporated radioactivity in the chloroform phase was measured by scintillation counting. For the other precursors, incorporation was terminated by adding 10% (w/v) TCA and cooling on ice for 20 min. The precipitated material was collected on Whatman GF/C glass microfiber filters, washed with TCA and ethanol, dried, and counted using a scintillation counter. The total counts incorporated at 1 h of incubation without inhibitors ranged from >7,000 for [U-^14C] uridine to <13,000 for [1-^14C] acetate. […] In all experiments, known antibacterial agents were included as positive controls.

The test system of a further assay is E. coli EW1b(pBAD-fabI). Nature of the assay: Overexpression assay, MIC for fabI-overexpressing E. coli EW1b (pBAD-fabI). The class given is cell-based. As to conditions: for MIC for fabI-overexpressing E. coli relative to wild-type and vector-containing E. coli: E. coli EW1b (pBAD-fabI) vs E. coli EW1b and E. coli EW1b (pBAD), in the presence of arabinose; for MIC: Escherichia coli. On the procedure:
(§2) Whole-cell antimicrobial activity was determined by broth microdilution as described previously. The test strains except for S. pneumoniae were grown to mid-log phase in Mueller–Hinton broth and diluted 1,000-fold in the same medium. Cells (10^5/mL) were inoculated into Mueller–Hinton broth and dispensed at 0.2 mL/well into a 96-well microtiter plate. S. pneumoniae was grown in tryptic soy broth supplemented with 5% sheep blood. MICs were determined in triplicate by serial 2-fold dilutions of test compounds. […] Bacterial growth was determined by measuring the absorption at 650 nm by using a microtiter ELISA reader.
(§3) An overexpression assay using S. aureus RN4220, S. aureus RN4220 (pE194), and S. aureus RN4220 (pE194-fabI) was conducted to perform target validation of FabI inhibitors as described previously. Additionally, both fabI- and fabK-overexpressing E. coli were constructed to test a multitarget effect of the compounds. The wild-type fabI gene from the genomic DNA of E. coli W3110 was amplified by PCR by using the primers 5′-[…]-3′ and 5′-[…]-3′. The wild-type fabK gene from the genomic DNA of S. pneumoniae KCTC 5412 was amplified by PCR by using the primers 5′-[…]-3′ and 5′-[…] […]-3′. The resulting products were cloned into the pBAD-TOPO TA expression vector (Invitrogen, Carlsbad, CA, USA) to yield the pBAD-fabI and pBAD-fabK recombinant plasmids, which placed the expression of the genes fabI and fabK, respectively, under the control of the arabinose promoter. Recombinant pBAD-fabI and pBAD-fabK were then introduced into the pump-negative (tolC) E. coli EW1b via electroporation to generate E. coli EW1b (pBAD-fabI) and E. coli EW1b (pBAD-fabK), respectively.

Another assay concerns S. aureus KCTC 1916. The class given is cell-based, Staphylococcus aureus. As to conditions: exposure 4× MIC. The procedure: (§4) The frequency of spontaneous resistance was determined for S. aureus RN4220, S. aureus KCTC 1916, and E. coli KCTC 1942. […] The organisms were grown to log-phase by dilution of an overnight culture in fresh media and re-incubation at 35°C until the cultures reached a cell density of approximately 10^9 CFU/mL. […] Inocula were determined by applying 100 μl of 10-fold dilutions on solid media without drug. Colony-forming units were counted after 48 h incubation at 35°C. The ratio of the number of colonies on drug-containing plates to that on control plates was calculated as the in vitro frequency of isolation of CFU.

Assay [2] has as its system S. aureus RN4220. It is filed as cell-based, Staphylococcus aureus. To be noted: exposure 4× MIC. On the procedure:
as §4

For the next assay, the system named is E. coli EW1b(pBAD-fabK). Nature of the assay: Overexpression assay, MIC for fabK-overexpressing E. coli EW1b (pBAD-fabK). The class given is cell-based. To be noted: Escherichia coli. On the procedure:
as §2, §3

For another assay, the system named is E. coli EW1b(pBAD). The assay can be described thus: Overexpression assay, MIC for vector-containing E. coli EW1b (pBAD). The class given is cell-based. As to conditions: Escherichia coli. On the procedure: as §2, §3
The subject of a further assay is S. pneumoniae KCTC 3932. Nature of the assay: Inhibition of macromolecular biosynthesis (radiolabeled precursor incorporation) in S. pneumoniae. It is filed as cell-based, Streptococcus pneumoniae. As to conditions: drugs at 2 times the MIC. On the procedure: as §1
In the next assay the test system is E. coli KCTC 1924. The class given is cell-based. To be noted: exposure 4× MIC. On the procedure: as §4
Assay [3] can be described thus: MIC against other gram-positive bacteria. It is filed as cell-based. As to conditions: Staphylococcus aureus. On the procedure:
as §2

The mark [4] stands for this setting: read-out: MIC E. coli EW1b(pBAD-fabI) (+) Ara.
Where [5] appears, read: read-out: MIC E. coli EW1b(pBAD-fabI) (−) Ara.
Setting [6] is: read-out: MIC E. coli EW1b(pBAD-fabK) (+) Ara.
The mark [7] stands for this setting: read-out: MIC E. coli EW1b(pBAD-fabK) (−) Ara.
[8] abbreviates: read-out: MIC E. coli EW1b(pBAD) (+) Ara.
[9] abbreviates: read-out: MIC E. coli EW1b(pBAD) (−) Ara.

Data on five compounds can be found in publication PMC3842914, “Meleagrin, a New FabI Inhibitor from Penicillium chryosogenum with at Least One Additional Mode of Action” (PLoS ONE, 2013).

≈ marks a conversion by molar mass, not a printed value. Read-outs that look alike come from different tables or passages of the source.

In the case of `C=CC(C)(C)C12C=C(O)C(=O)N3/C(=C/c4cnc[nH]4)C(=O)NC31N(OC)c1ccccc12` (stereo not shown) [Compound 1, meleagrin], the “Fluorescence quenching of S. aureus FabI” value at S. aureus FabI was “same pattern as compound 5”. In addition, the figures for the “Inhibition of precursor incorporation, L-[U-14C] Isoleucine” value in the assay on S. aureus RN4220 [1] and with S. pneumoniae KCTC 3932 were 6% and 9%, respectively. Also, the “Inhibition of precursor incorporation, N-Acetyl-D-[1-14C] Glucosamine” value worked out at 25% with S. aureus RN4220 [1] and 3% in the assay with S. pneumoniae KCTC 3932. Besides, the “Inhibition of precursor incorporation, [1-14C] Acetate” value in the assay with S. aureus RN4220 [1] worked out at 62%; in the assay with S. pneumoniae KCTC 3932 it was 65%. Further, the results for the “Inhibition of precursor incorporation, [2-14C] Thymidine” value with S. aureus RN4220 [1] and in the assay with S. pneumoniae KCTC 3932 were 13% and 15%, respectively. Besides, the “Inhibition of precursor incorporation, [U-14C] Uridine” value with S. aureus RN4220 [1] is given as 17%; with S. pneumoniae KCTC 3932, 2%. Moreover, the “MIC for fabI-overexpressing E. coli relative to wild-type and vector-containing E. coli” value with E. coli EW1b(pBAD-fabI) was 4 fold. The MIC in the assay with E. coli EW1b(pBAD-fabI) (setting [4]) worked out at 128 µg/mL (≈ 295 µM); in the assay with E. coli EW1b(pBAD-fabI) (setting [5]), 32 µg/mL (≈ 73.8 µM); with E. coli EW1b(pBAD-fabK) (setting [6]) it was 32 µg/mL (≈ 73.8 µM); with E. coli EW1b(pBAD-fabK) (setting [7]), 32 µg/mL (≈ 73.8 µM); in the assay with E. coli EW1b(pBAD) (setting [8]), 32 µg/mL (≈ 73.8 µM); in the assay with E. coli EW1b(pBAD) (setting [9]) it was 32 µg/mL (≈ 73.8 µM). In addition, the Frequency of resistance in the assay on S. aureus KCTC 1916 is recorded as <1.03×10^−10; in the assay with S. aureus RN4220 [2], <1.62×10^−10; with E. coli KCTC 1924, <6.7×10^−9.

In the case of `C=CC(C)(C)C12C=C(OC)C(=O)N3/C(=C/c4cnc[nH]4)C(=O)N(C)C31N(OC)c1ccccc12` (stereo not shown) [Compound 5, O,N^14-dimethylmeleagrin], at S. aureus FabI, the “Fluorescence quenching of S. aureus FabI” value is “fluorescence intensity decreased gradually”. The “MIC for fabI-overexpressing E. coli relative to wild-type and vector-containing E. coli” value with E. coli EW1b(pBAD-fabI) stood at 4 fold. The MIC in the assay with E. coli EW1b(pBAD-fabI) (setting [4]) was determined as 64 µg/mL (≈ 139 µM); in the assay on E. coli EW1b(pBAD-fabI) (setting [5]), 16 µg/mL (≈ 34.7 µM); in the assay on E. coli EW1b(pBAD-fabK) (setting [6]), 16 µg/mL (≈ 34.7 µM); with E. coli EW1b(pBAD-fabK) (setting [7]), 16 µg/mL (≈ 34.7 µM); in the assay on E. coli EW1b(pBAD) (setting [8]), 16 µg/mL (≈ 34.7 µM); with E. coli EW1b(pBAD) (setting [9]), 16 µg/mL (≈ 34.7 µM). In assay [3] (other gram-positive bacteria incl. MRSA and QRSA strains, read-out: MIC), the MIC was 8 to 16 µg/mL (≈ 17.3 to 34.7 µM). The Frequency of resistance is <1.03×10^−10 in the assay with S. aureus KCTC 1916, <1.62×10^−10 in the assay with S. aureus RN4220 [2] and <6.7×10^−9 in the assay on E. coli KCTC 1924.

As to `C=CC(C)(C)C12C=C(OC)C(=O)N3/C(=C/c4cnc[nH]4)C(=O)N(C)C31Nc1ccccc12` (stereo not shown) [Compound 6, O,N^14-dimethylglandicolin], the MIC in assay [3] lay in the range of 8 to 16 µg/mL (≈ 18.5 to 37.1 µM).

Consider `C=CC(C)(C)C12C=C(O)C(=O)N3/C(=C/c4cnc[nH]4)C(=O)NC31Nc1c(Br)cccc12` (stereo not shown) [Compound 7], for which the “Fluorescence quenching of S. aureus FabI” value on S. aureus FabI was “did not exhibit such an effect”.

On to `Oc1cc(Cl)ccc1Oc1ccc(Cl)cc1Cl` [Triclosan, reference compound], for which the “Fluorescence quenching of S. aureus FabI” value at S. aureus FabI is reported as “resulted in fluorescence quenching”. For the same compound, the “Inhibition of precursor incorporation, [1-14C] Acetate” value in the assay with S. aureus RN4220 [1] was 87%. Also, the MIC was above 0.08 µg/mL with E. coli EW1b(pBAD-fabI) (setting [4]); 0.002 µg/mL (≈ 0.00691 µM) in the assay on E. coli EW1b(pBAD-fabI) (setting [5]); above 0.08 µg/mL with E. coli EW1b(pBAD-fabK) (setting [6]); 0.002 µg/mL (≈ 0.00691 µM) in the assay with E. coli EW1b(pBAD-fabK) (setting [7]); 0.002 µg/mL (≈ 0.00691 µM) in the assay on E. coli EW1b(pBAD) (setting [8]); 0.002 µg/mL (≈ 0.00691 µM) in the assay with E. coli EW1b(pBAD) (setting [9]).

Broadly, the MIC is the least concentration at which growth counts as inhibited.
